ChEMBL document CHEMBL1152272, “Inhibitor scaffolds for 2-oxoglutarate-dependent histone lysine demethylases” (J Med Chem, 2008)

Tests used:
[1] = Inhibition of 2-oxoglutarate-dependent human JMJD2E in presence of excess 2-oxoglutarate and 10 uM Fe2 by FDH coupled assay
[2] = Inhibition of 2-oxoglutarate-dependent human JMJD2E in presence of excess H3K9me3 peptide and 10 uM Fe2 by FDH coupled assay
[3] = Inhibition of 2-oxoglutarate-dependent human JMJD2E preincubated for 30 mins by FDH coupled assay
[4] = Inhibition of 2-oxoglutarate-dependent human JMJD2E in presence of 50 uM Fe by FDH coupled assay
[5] = Inhibition of human collagene prolyl-4-hydroxylase
[6] = Inhibition of human collagene prolyl-3-hydroxylase
[7] = molecular target: Prolyl hydroxylase EGLN2 (Homo sapiens, UniProt Q96KS0); assay: Inhibition of human recombinant HIF PHD1
Prolyl hydroxylase EGLN2, sequence (Q96KS0 whole entry): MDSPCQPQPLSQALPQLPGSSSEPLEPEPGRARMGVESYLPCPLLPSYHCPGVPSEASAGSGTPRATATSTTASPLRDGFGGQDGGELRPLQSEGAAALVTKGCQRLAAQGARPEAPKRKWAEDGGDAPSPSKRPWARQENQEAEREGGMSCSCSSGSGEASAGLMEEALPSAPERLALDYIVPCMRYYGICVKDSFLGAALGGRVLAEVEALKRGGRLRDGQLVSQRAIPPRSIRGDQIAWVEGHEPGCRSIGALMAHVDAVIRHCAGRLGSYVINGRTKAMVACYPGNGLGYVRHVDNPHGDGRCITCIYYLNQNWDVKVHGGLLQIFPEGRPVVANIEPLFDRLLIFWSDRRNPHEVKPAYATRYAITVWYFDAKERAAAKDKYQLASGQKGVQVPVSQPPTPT

[8] = molecular target: Prolyl hydroxylase EGLN3 (Homo sapiens, UniProt Q9H6Z9); assay: Inhibition of human recombinant HIF PHD3
Prolyl hydroxylase EGLN3, sequence (Q9H6Z9 whole entry): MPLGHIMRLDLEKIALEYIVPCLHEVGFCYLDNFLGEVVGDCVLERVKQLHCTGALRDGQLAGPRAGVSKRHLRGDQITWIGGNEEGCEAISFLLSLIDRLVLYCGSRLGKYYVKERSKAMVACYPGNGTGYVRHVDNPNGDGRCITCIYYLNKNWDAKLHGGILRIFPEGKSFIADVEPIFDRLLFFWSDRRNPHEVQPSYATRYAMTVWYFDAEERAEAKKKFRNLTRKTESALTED

[9] = molecular target: T1, Egl nine homolog 1 (Homo sapiens, UniProt Q9GZT9); assay: Inhibition of 2-oxoglutarate-dependent human recombinant HIF PHD2 preincubated for 1 hr
T1 sequence (Q9GZT9 whole entry): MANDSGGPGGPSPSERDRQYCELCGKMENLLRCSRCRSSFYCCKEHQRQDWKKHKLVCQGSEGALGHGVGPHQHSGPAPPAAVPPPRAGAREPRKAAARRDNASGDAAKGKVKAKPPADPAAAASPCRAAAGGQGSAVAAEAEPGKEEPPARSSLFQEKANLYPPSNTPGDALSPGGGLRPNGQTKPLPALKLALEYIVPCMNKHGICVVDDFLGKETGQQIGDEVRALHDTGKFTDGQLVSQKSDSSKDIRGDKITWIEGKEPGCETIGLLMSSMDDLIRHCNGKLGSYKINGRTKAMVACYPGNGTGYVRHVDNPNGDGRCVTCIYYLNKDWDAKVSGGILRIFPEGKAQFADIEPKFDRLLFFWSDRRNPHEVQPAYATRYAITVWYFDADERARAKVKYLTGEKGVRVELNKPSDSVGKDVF

[10] = molecular target: Hypoxia-inducible factor 1-alpha inhibitor (Homo sapiens, UniProt Q9NWT6); assay: Inhibition of human FIH
Hypoxia-inducible factor 1-alpha inhibitor, sequence (Q9NWT6 whole entry): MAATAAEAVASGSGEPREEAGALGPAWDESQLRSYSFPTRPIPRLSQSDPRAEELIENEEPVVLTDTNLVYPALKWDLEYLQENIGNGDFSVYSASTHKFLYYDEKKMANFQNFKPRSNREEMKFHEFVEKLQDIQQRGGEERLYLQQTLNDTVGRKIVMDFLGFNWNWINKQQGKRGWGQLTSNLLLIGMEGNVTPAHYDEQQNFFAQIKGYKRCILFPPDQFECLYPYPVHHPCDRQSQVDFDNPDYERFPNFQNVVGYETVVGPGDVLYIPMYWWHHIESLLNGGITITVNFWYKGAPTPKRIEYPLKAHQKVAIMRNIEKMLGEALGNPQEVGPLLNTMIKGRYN

[11] = molecular target: T1, Egl nine homolog 1; assay: Inhibition of human recombinant PHD2

IC50 [1]	IC50 [2]	SMILES	other results
300 µM	28 µM	O=C(NO)c1cccc(O)c1	IC50 [3]: 4.8 µM; IC50 [4]: 19 µM
> 10000 µM	> 10000 µM	O=C(O)c1ccncc1C(=O)O	–
4.7 µM	–	O=C(O)c1ccnc(C(=O)O)c1	IC50 [4]: 1.8 µM; Ki [5]: 2 µM; Ki [6]: 9 µM; Ki [7]: 7 µM; Ki [8]: 7 µM
> 10000 µM	> 10000 µM	O=C(O)c1cncc(C(=O)O)c1	–
270 µM	100 µM	O=C(O)C(=O)N[C@H](CCc1ccccc1)C(=O)O	IC50 [3]: 39 µM
590 µM	–	O=C(O)C(=O)N[C@H](Cc1ccccc1)C(=O)O	–
73 µM	27 µM	O=C(O)c1cc(C(=O)O)ncn1	–
340 µM	360 µM	O=C(NO)c1cc(O)ccc1Oc1ccccc1	–
300 µM	230 µM	COc1ccc(O)cc1C(=O)NO	IC50 [4]: 160 µM
> 10000 µM	> 10000 µM	CCCC(=O)O [BUTYRIC ACID]	–
250 µM	120 µM	O=C(O)c1cccc(C(=O)O)n1 [DIPICOLINIC ACID]	IC50 [4]: 120 µM
> 10000 µM	1600 µM	O=C(O)/C=C/C(=O)O [FUMARIC ACID]	IC50 [3]: 2300 µM; IC50 [9]: 3 µM
–	–	O=C(O)CNC(=O)C(=O)O [N-OXALYLGLYCINE]	Ki [10]: 1200 µM
1900 µM	180 µM	O=C(O)c1ccc(C(=O)O)nc1 [PYRIDINE-2,5-DICARBOXYLIC ACID]	Ki [11]: > 300 µM; Ki [5]: 0.8 µM; Ki [6]: > 1000 µM; Ki [7]: > 300 µM; Ki [8]: > 300 µM
> 10000 µM	> 5000 µM	O=C(O)c1cccnc1C(=O)O [QUINOLINIC ACID]	–
> 10000 µM	710 µM	O=C(O)CCC(=O)O [SUCCINIC ACID]	IC50 [3]: 320 µM
–	–	CC(/C=C/C(=O)NO)=C\[C@@H](C)C(=O)c1ccc(N(C)C)cc1 [TRICHOSTATIN]	IC50 [3]: 28 µM
